Common to all, as to type: functional
In assay [1] the test system is Mus musculus. Briefly: Tested for analgesic activity, using Tail-Flick test in Mice at the dose of 1 ug/mouse administered icv after 30 min. On the technique in general: In hot-plate and tail-flick tests a longer latency is read as antinociception.
The test system of assay [2] is Mus musculus. Briefly: Tested for analgesic activity, using Tail-Flick test in Mice at the dose of 1 ug/mouse administered icv after 5 min.
Assay [3] relates to Mus musculus. Briefly: Tested for analgesic activity, using Tail-Flick test in Mice at the dose of 1 ug/mouse administered icv after 60 min.
The test system of assay [4] is Mus musculus. Briefly: Tested for analgesic activity, using Tail-Flick test in Mice at the dose of 2.5 ug/mouse administered icv after 30 min.
Assay [5] deals with Mus musculus. Briefly: Tested for analgesic activity, using Tail-Flick test in Mice at the dose of 2.5 ug/mouse administered icv after 5 min.
Assay [6] concerns Mus musculus. Briefly: Tested for analgesic activity, using Tail-Flick test in Mice at the dose of 0.5 ug/mouse administered icv after 30 min.
In assay [7] the test system is Mus musculus. Put plainly: Tested for analgesic activity, using Tail-Flick test in Mice at the dose of 0.5 ug/mouse administered icv after 5 min.
The subject of assay [8] is Mus musculus. Briefly: Tested for analgesic activity, using Tail-Flick test in Mice at the dose of 0.5 ug/mouse administered icv after 60 min.
For assay [9], the system named is Mus musculus. Put plainly: Tested for analgesic activity, using Tail-Flick test in Mice at the dose of 2.5 ug/mouse administered icv after 60 min.
The subject of assay [10] is Mus musculus. Briefly: Tested for analgesic activity, using Tail-Flick test in Mice at the dose of 0.1 ug/mouse administered icv after 30 min.
The test system of assay [11] is Mus musculus. Put plainly: Tested for analgesic activity, using Tail-Flick test in Mice at the dose of 0.1 ug/mouse administered icv after 5 min.
Assay [12] has as its system Mus musculus. Put plainly: Tested for analgesic activity, using Tail-Flick test in Mice at the dose of 0.1 ug/mouse administered icv after 60 min.
In assay [13] the test system is Mus musculus. Briefly: Tested for analgesic activity, using Tail-Flick test in Mice at the dose of […] administered icv after 30 min.
For assay [14], the system named is Mus musculus. Put plainly: Tested for analgesic activity, using Tail-Flick test in Mice at the dose of 0.5 ug/mouse administered icv after 5 min.

Each structure is given as a SMILES string. Peptide text beside a SMILES is read from it.

`COC(=O)CCSn1cc(CC(NC(=O)C(N)CCCCN)C(=O)OC)c2ccccc21` (configuration not stated): the Change came out at 7% with Mus musculus [1]; 15% in the assay with Mus musculus [2]; 9% in the assay on Mus musculus [3]; 15% in the assay on Mus musculus [4]; 16% in the assay with Mus musculus [5]; 10% in the assay on Mus musculus [6]. Further, the figures for the Change in the assay with Mus musculus [7], in the assay with Mus musculus [8] and in the assay on Mus musculus [9] were 11%, 9% and 0%, respectively.

For the compound `COC(=O)C(Cc1cn(Sc2ccccc2NC(C)=O)c2ccccc12)NC(=O)C(N)CCCCN` (configuration not stated), the Change is 20% in the assay on Mus musculus [1]; 25% in the assay on Mus musculus [2]; 15% in the assay with Mus musculus [3]; 26% with Mus musculus [4]; 27% in the assay with Mus musculus [5]; -2% in the assay with Mus musculus [6]. Also, the Change with Mus musculus [7] stood at 0%; in the assay on Mus musculus [8], 5%; in the assay on Mus musculus [9], 10%.

On to `CSCC[C@H](N)C(=O)N[C@@H](C)C(=O)NCC(=O)NCC(=O)N[C@@H](Cc1ccc(O)cc1)C(N)=O` (H-MAGGY-NH2), for which the Change is 26% with Mus musculus [10]; 40% in the assay on Mus musculus [11]; -7% in the assay on Mus musculus [12]; 118% in the assay on Mus musculus [1]; 210% in the assay with Mus musculus [2]; 45% in the assay with Mus musculus [3]. In addition, the Change in the assay on Mus musculus [13] was 76%; with Mus musculus [8], 35%; in the assay on Mus musculus [14] it was 122%.
